Patent US9388216B2, “Methods of treating reproductive cancer” (Medical Research Council, priority 2006, dated 2016)

Tests used:
[1] = test system: ERK1/2 phosphorylation in HEK293 cells expressing rat GnRHR or rat GnRHR/TRHR chimera; assay: ERK activation profile, western blot with anti-phosphorylated ERK1/2; format: cell-based; settings: 100 nM, rat GnRHR versus rat GnRHR/TRHR chimera
Source text: We decided to investigate if this lack of rapid desensitisation holds true for other responses that may be more pertinent for the antiproliferative/apoptotic properties of GnRH.

[2] = test system: Gi coupling of GnRHR (FSK-stimulated cAMP); assay: Inhibition of FSK-stimulated cAMP in HEK293/rGnRHR cells; format: cell-based, rat; settings: unpublished results
Source text: However, we agree with the general view that PLC, representing the classical Gq-initiated pituitary signalling pathway, is not a relevant component of the apoptotic cascade.

[3] = test system: HEK293 cells expressing human GnRHR with catfish GnRHR tail or rat GnRHR with TRHR tail; assay: Cell growth after five days of GnRH I in HEK293 cells expressing tailed chimeric receptors; format: cell-based; settings: five days of continuous treatment
Protocol: Trypan Blue-excluding cells were then counted with a haemocytometer. For the second method, cells were seeded into 96-well plates at 5,000 cells (in 100 μl)/well and treated exactly as described before. 10 μl WST-1 reagent (Roche Diagnostics Ltd.; Lewes, East Sussex, UK) was added directly to each well and, after 3 h at 37° C., absorbance was read at 450 nm (with a reference at 690 nm) against a background control as blank using a microplate ELISA reader. To the best of our knowledge, the ability to inhibit the growth of cells expressing its cognate receptor is a property only clearly described for GnRH, Since the type I GnRH receptor (GnRHR) is the only G protein-coupled receptor lacking an intracellular C-terminal tail, we hypothesized that the cell growth suppression ability of GnRH was conferred by this unique feature of the GnRHR. […] We were unable to detect growth suppression of wild-type HEK293 cells, which endogenously express adrenergic, LPA and endothelin receptors, treated with their corresponding agonists (data not shown). The expression of all receptors mentioned was confirmed by binding assays or western blotting (data not shown).

[4] = test system: HEK293 cells over-expressing the catfish GnRHR or the TRHR; assay: Cell growth in HEK293 cells over-expressing the catfish GnRHR or the TRHR; format: cell-based; settings: data not shown
Protocol: (§1) For the first method, HEK293 cells expressing various GnRH receptor constructs were seeded into 12-well PLL-coated plates at 50,000 cells (in 1 ml)/well and cultured with continuous GnRH exposure for five days, adding fresh peptide every day. Trypan Blue-excluding cells were then counted with a haemocytometer. For the second method, cells were seeded into 96-well plates at 5,000 cells (in 100 μl)/well and treated exactly as described before. 10 μl WST-1 reagent (Roche Diagnostics Ltd.; Lewes, East Sussex, UK) was added directly to each well and, after 3 h at 37° C., absorbance was read at 450 nm (with a reference at 690 nm) against a background control as blank using a microplate ELISA reader.
To the best of our knowledge, the ability to inhibit the growth of cells expressing its cognate receptor is a property only clearly described for GnRH, Since the type I GnRH receptor (GnRHR) is the only G protein-coupled receptor lacking an intracellular C-terminal tail, we hypothesized that the cell growth suppression ability of GnRH was conferred by this unique feature of the GnRHR. […] We were unable to detect growth suppression of wild-type HEK293 cells, which endogenously express adrenergic, LPA and endothelin receptors, treated with their corresponding agonists (data not shown). The expression of all receptors mentioned was confirmed by binding assays or western blotting (data not shown).

[5] = biological target: T1, rat GnRH receptor (Rattus norvegicus, UniProt P30969); assay: Accumulation of total inositol phosphates (PLCβ activation) in HEK293/rGnRHR cells; format: cell-based
T1 construct: expressed in transfected cells
T1 sequence (P30969 1-327): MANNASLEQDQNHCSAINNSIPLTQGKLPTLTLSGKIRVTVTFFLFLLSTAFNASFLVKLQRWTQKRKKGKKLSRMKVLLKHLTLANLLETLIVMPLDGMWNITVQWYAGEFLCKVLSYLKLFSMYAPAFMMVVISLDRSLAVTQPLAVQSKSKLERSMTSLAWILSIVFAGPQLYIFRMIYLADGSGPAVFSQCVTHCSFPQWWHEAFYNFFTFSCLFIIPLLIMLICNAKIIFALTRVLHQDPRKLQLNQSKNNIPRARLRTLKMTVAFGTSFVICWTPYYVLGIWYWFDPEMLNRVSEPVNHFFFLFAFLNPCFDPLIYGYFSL
Protocol: HEK293 cells stably expressing the GnRH receptor growing on 12-well PLL-coated plates were pre-labelled with 1 μCi/ml myo-[H3]inositol (Amersham) in inositol-free DMEM (Sigma) for 48 h. On the day of the experiment, cells were washed with assay buffer (140 mM NaCl, 20 mM HEPES, 8 mM glucose, 4 mM KCl, 1 mM MgCl2, 1 mM CaCl2, 1 mg/ml BSA), pre-incubated with 10 mM LiCl (in assay buffer) for 30 min, and stimulated with different concentrations of the peptides (in the same buffer) for 1 h at 37° C. Incubations were terminated by removing the culture medium and lysing the cells in ice cold 10 mM formic acid for 30 min. Inositol phosphates were extracted by chromatography with an anion exchange resin (AG® 1-X8, Bio-Rad) using 1 M ammonium formate and 0.1 M formic acid. Liquid scintillant was added to the final eluate and [3H]inositol phosphates were measured in the β-counter.
(§2) Bar graphs and curves were obtained using Prism 3.0 (GraphPad Software, Inc.: San Diego, Calif., USA). IC50 and EC50 values were determined by non-linear regression analysis. Curves were best-fitted to a one-site model. […] Values were normalised as specified in the figure legends.

[6] = test system: HEK293/rGnRHR cells; assay: Thymidine incorporation assay; format: cell-based, rat; settings: 100 nM, continuous treatment, over 96 h
Protocol: Medium of cells growing on 24-well PLL-coated plates was removed and 0.5 μCi [3H]thymidine (Amersham) in complete fresh medium was added to each well. After an overnight incubation, the medium was removed, the cells washed three times with 1 ml PBS and left for […] at room temperature in 0.5 ml 0.1 N NaOH. The extract was then transferred to a scintillation vial, 2 ml of Optiphase “HiSafe 3” cocktail (PerkinElmer) added and 3H counts measured in a liquid scintillation 1450 Wallac MicroBeta® TriLux counter.
(§3) We investigated whether the growth suppression caused by GnRH on HEK293 cells expressing the rat receptor was due to an inhibition of cell proliferation or an induction of apoptosis. On the one hand, we used radioactive thymidine incorporation into the genome to track cell proliferation over a period of 96 h. […] On the other hand, we measured apoptosis by monitoring cleavage of poly[ADP-ribose]polymerase (PARP), a substrate of caspase 3. […] The increase of cleaved PARP in the cytoplasm was proportional to the increase of cleaved PARP in the nucleus (data not shown), so we routinely only examined clarified whole-cell lysates for technical ease.

[7] = test system: PARP cleavage in HEK293/rGnRHR cells; assay: Time-course of PARP cleavage (apoptosis), western blot; format: cell-based, rat; settings: 100 nM
Protocol: as §3

[8] = test system: HEK293/rGnRHR cells; assay: Cell growth inhibition (viable cell number after 5 days of continuous treatment) in HEK293/rGnRHR cells; format: cell-based, rat; settings: rat receptor
Protocol: as §1, §2
(§4) Antiproliferation/apoptosis was estimated by determining cell number after five days of continuous exposure to the peptides. In parallel, this response was compared to the classical Gq coupled-PLCβ activation induced by GnRH peptides, as measured by the very well characterized inositol phosphates accumulation protocol. Both outputs were determined in two HEK293 cell lines; one expressing the rat receptor and the other expressing the human receptor. The human cell line was included in the study because this species may be clinically more relevant and the very low receptor expression may better reflect the in vivo tumoural state. In fact, due to poor binding, the precise affinity of the analogues on this cell line could not be determined.

[9] = test system: HEK293/hGnRHR cells; assay: Cell growth inhibition (viable cell number after 5 days of continuous treatment) in HEK293/hGnRHR cells; format: cell-based, human; settings: human receptor
Protocol: as §1, §2, §4

For “pGlu-His-Trp-Ser-Tyr-Gly-Leu-Arg-Pro-Gly.NH2 [GnRH I]”, the “duration of ERK activation” value [1] was “more sustained in the cells expressing the receptors lacking the C-terminal tail”, the “inhibition of FSK-stimulated cAMP” value [2] was “did not detect” and the “effect of GnRH I on cell growth of cell lines expressing the chimeras” value [3] was “Addition of the C-terminal tails inhibited the effect”. For the same substance, the “inhibition of cell growth” value [4] was “did not inhibit the growth”, the “fold more potent to activate PLCβ than GnRH II” value [5] was 4.7 fold and the “DNA replication (thymidine incorporation) compared to untreated cells” value [6] was “reduced DNA replication”. The “time after first treatment at which PARP cleavage (apoptosis) is manifest” value [7] was “at least 48 h”.
With “pGlu-His-Trp-Ser-His-Gly-Trp-Tyr-Pro-Gly.NH2 (EHWSHGWYPG; HELM PEPTIDE1{[Glp].H.W.S.H.G.W.Y.P.G.[am]}$$$$V2.0; SMILES NC(=O)CNC(=O)[C@@H]1CCCN1C(=O)[C@H](Cc1ccc(O)cc1)NC(=O)[C@H](Cc1c[nH]c2ccccc12)NC(=O)CNC(=O)[C@H](Cc1c[nH]cn1)NC(=O)[C@H](CO)NC(=O)[C@H](Cc1c[nH]c2ccccc12)NC(=O)[C@H](Cc1c[nH]cn1)NC(=O)[C@@H]1CCC(=O)N1) [GnRH II, human gonadotropin-releasing hormone II, purchased from Sigma-Aldrich]” the “inhibition of FSK-stimulated cAMP” value [2] was “did not detect”, the “fold more potent than GnRH I to induce cell death / inhibit cell growth” value [8] was 13.0 fold and the “DNA replication (thymidine incorporation) compared to untreated cells” value [6] was “reduced DNA replication”. The “fold more potent than GnRH I to induce cell death / inhibit cell growth” value [9] was 6.7 fold and the “time after first treatment at which PARP cleavage (apoptosis) is manifest” value [7] was 24 h.
